Patent US7169813B2, “4-oxo-fenretinide, administered alone and in combination with fenretinide, as preventive and therapeutic agent for cancer” (Fondazione IRCCS “Istituto Nazionale Dei Tumori”, priority 2004, dated 2007)
Read-outs that look alike come from different tables or passages of the source.

How the values were obtained:
MCF-7 = test: Growth inhibition (sulforhodamine B assay), single agents and combination; type: cell-based, human; conditions: for IC50: Homo sapiens, read-out: 50% Inhibitory Concentrations (IC50) at 72 h; for Survival (% control cells): single agent 1 μM
Protocol: (§1) The following human breast tumor cell lines, obtained from Dr. R. Sutherland (Garvan Institute, Sydney, Australia) were tested: T-47D, BT-20 and MCF-7. The following human neuroblastoma cell lines, purchased from ATCC, were tested: SK-N-BE, SK-N-SH, SK-N-MC, and GI-LI-N. All cell lines were grown in monolayer, in medium containing 10% fetal bovine serum (Invitrogen) in 5% CO2 at 37° C. The medium for A2780, A2780/HPR, IGROV-1, OVCA432, SKOV-3, T-47D, BT-20, MCF-7, GI-LI-N and SK-N-BE cells was RPMI 1640 (Cambrex, Verviers, Belgium) and the medium for OAW42, SK-N-MC and SK-N-SH cells was EMEM (ATCC).
(§2) For the growth inhibition assays, cells were seeded at a density of 3500 cells per well in 96 cluster tissue culture plates, and treated 24 hr after seeding with different concentrations of 4-oxo-4-HPR or 4-HPR. 4-oxo-4-HPR was dissolved in absolute ethanol and 4-HPR (obtained from Dr. J. A. Crowell —NCI Bethesda, Md., USA) was dissolved in Me2SO. […] Control cultures received the same amount of ethanol or Me2SO as the treated cultures. 72 hr after treatment cell number was estimated by using the sulforhodamine B assay according to Monks et al., (J. Natl. Cancer, 1991, 11: 757–766). The survival of treated cells was calculated for the various drug concentrations as percentage of the survival of control cells. The antiproliferative activity of 4-oxo-4-HPR and 4-HPR in each cell line, was tested in three separate experiments and the average values ±SD are reported in FIGS. 2, 3, and 4.
(§3) The antiproliferative effect of the combination of the two drugs, administered at one single dose, was also tested in other ovarian carcinoma cell lines and in breast tumor cell lines. The type of interaction between 4-HPR and 4-oxo-4-HPR was assessed by the method of Drevinko et al., as described in Cancer Biochem. Biophys., 1976, 1:187–195. For this evaluation the drugs were assumed to provide independent effects. The combination index (CI) was calculated as follows: survival fraction (SF) of the combination of 4-HPR+4-oxo-4-HPR divided by (SF 4-HPR×SF 4-oxo-4-HPR). The results for CI are defined as follows: CI=1 indicates an additive effect, CI<1 indicates a supra-additive effect and CI>1 indicates a sub-additive effect.

A2780/HPR = A2780/HPR clone versus A2780; cited from earlier work
A2780 [1] = test: Growth inhibition (sulforhodamine B assay), single agents and combination; type: cell-based, human; conditions: Homo sapiens, A2780, 72 h, read-out: 50% Inhibitory Concentrations (IC50) at 72 h
Protocol: (§4) The following human ovarian carcinoma cell lines were tested: A2780 was obtained from Dr. R. F. Ozols (National Cancer Institute, Bethesda, Md., USA); IGROV-1 was obtained from Dr. J. Benard (Villejuif, France); OVCA432 was obtained from Dr. R. C. Knapp (Boston, Mass., USA); OAW42 and SKOV-3 were purchased from ATCC (Rockville, Md., USA). A2780/HPR, a 4-HPR— resistant ovarian carcinoma cell line, was obtained in our laboratory by continuous exposure of A2780 cells to increasing concentrations of 4-EPR as previously described (Appierto et al., Br. J. Cancer, 2001, 84:1528–1534; Prinetti et al., J. Biol. Chem., 2003, 278:5574–5583). Briefly, cells surviving 60 transplants in 4-HPR —containing medium (3 transplants at 1 μM, 11 transplants at 2 μM, 8 transplants at 3 μM, and 38 transplants at 5 μM) were cloned by limiting dilution. […] Therefore, A2780/HPR cells were continuously maintained in 5 μM 4-HPR and seeded without 4-HPR in all the experiments performed to test their sensitivity to 4-oxo-4-HPR.
as §1, §2, §3

A2780 [2] = test: Apoptosis induction (Cell Death Detection ELISA, DNA fragmentation); type: cell-based, human; conditions: 5 μM, 24 hr
Protocol: Although the mechanism of action of 4-HPR is not well understood, its tumor growth inhibitory effects have been attributed to apoptosis induction (Supino et al., Int. J. Cancer, 1996, 65:491–497). The apoptosis inducing effects of 4-oxo-4-HPR were compared with those of 4-HPR in the human ovarian carcinoma cell line A2780 and in its counterpart A2780/HPR, with induced resistance to 4-HPR. Apoptosis was evaluated by a Cell Death Detection ELISA Plus Assay Kit (Roche Diagnostic GmbH, Germany) according to the manufacturer's instructions. This assay quantitates the amount of cytoplasmic histone-associated DNA fragments which increases during apoptosis. Cells were seeded in 96-well cell culture plates and treated the day after with 5 μM 4-oxo-4-HPR or 4-HPR for 24 hr.

ovarian tumor cell lines = test: Growth inhibition, ovarian tumor cell lines (FIG. 2); type: cell-based, human; conditions: all tested ovarian tumor cell lines; 72 hr
Protocol: as §4, with “4-oxo-4-HPR. […]” for “4-oxo-4-HPR.”
For the growth inhibition assays, cells were seeded at a density of 3500 cells per well in 96 cluster tissue culture plates, and treated 24 hr after seeding with different concentrations of 4-oxo-4-HPR or 4-HPR. […] The survival of treated cells was calculated for the various drug concentrations as percentage of the survival of control cells. […]

Structure (SMILES)	IC50 (MCF-7; MCF7, MCF-7, 72 h) [nM]	Survival (% control cells) (MCF-7; MCF-7, 72 h)	resistance of A2780/HPR to 4-HPR (A2780/HPR) [fold]	IC50 (MCF-7; MCF7, 72 h) [nM]	tumor cell survival (FIG. 3), compared with 4-HPR, in words (MCF-7; MCF-7, 72 hr)	IC50 (A2780 [1]) [nM]	induction of apoptosis (DNA fragmentation, fold versus control cells) (A2780 [2])	reducing tumor cell survival (FIG. 2), compared with 4-HPR, in words (ovarian tumor cell lines)
CC1=C(/C=C/C(C)=C/C=C/C(C)=C/C(=O)Nc2ccc(O)cc2)C(C)(C)CCC1 [4-HPR, N-(4-hydroxyphenyl)retinamide, reference compound]	3000	86	10					
CC1=C(/C=C/C(C)=C/C=C/C(C)=C/C(=O)Nc2ccc(O)cc2)C(C)(C)CCC1=O [4-oxo-4-HPR, 4-oxo-N-(4-hydroxyphenyl)retinamide]		56		1500	more potent than 4-HPR	500	higher than that of 4-HPR	more effective than 4-HPR
